PubChem BioAssay (NCI)
“And” between values parts separate entries of the source, which are not always exact repeats. Identical values can stand only once.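 Each compound was tested at five concentrations against cells in 96-well plates for 48 hours. The concentration for 50% growth inhibition is given as GI50. TGI marks complete inhibition of growth.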

Columns and labels:
Experiment in all cases: NCI tumour cell line growth inhibition, 48 h
786-0 renal = test system: 786-0 renal
HCT-15 colon = test system: HCT-15 colon
HOP-18 NSCLC = test system: HOP-18 NSCLC
K-562 leukemia = test system: K-562 leukemia
KM20L2 colon = test system: KM20L2 colon
NCI-H226 lung = test system: NCI-H226 lung
SF-295 CNS = test system: SF-295 CNS
SK-OV-3 ovarian = test system: SK-OV-3 ovarian
SN12C renal = test system: SN12C renal
SNB-78 CNS = test system: SNB-78 CNS

SMILES | TGI (786-0 renal) | TGI (HCT-15 colon) | TGI (HOP-18 NSCLC) | TGI (K-562 leukemia) | TGI (KM20L2 colon) | TGI (NCI-H226 lung) | TGI (SF-295 CNS) | TGI (SK-OV-3 ovarian) | TGI (SN12C renal) | TGI (SNB-78 CNS) | GI50 (786-0 renal) | GI50 (HCT-15 colon) | GI50 (K-562 leukemia) | GI50 (NCI-H226 lung) | GI50 (SK-OV-3 ovarian) | GI50 (SN12C renal) | GI50 (KM20L2 colon) | GI50 (SF-295 CNS) | GI50 (SNB-78 CNS)
CC[C@@H]1NC(C(=O)OC)Cc2c1[nH]c1ccccc21 (stereo partly drawn) | > 100 µM | > 100 µM | > 100 µM | > 100 µM | > 100 µM | > 100 µM | > 100 µM | > 100 µM | > 100 µM | > 100 µM |  |  |  |  |  |  |  |  | 
CCCCNCCCNCCCNC(=O)c1csc(-c2csc(CCNC(=O)C(NC(=O)C(C)C(O)C(C)NC(=O)C(NC(=O)c3nc(C(CC(N)=O)NCC(N)C(N)=O)nc(N)c3C)C(OC3OC(CO)C(O)C(O)C3OC3OC(CO)C(O)C(OC(N)=O)C3O)c3cnc[nH]3)C(C)O)n2)n1 (stereo not drawn) | 50 µM and 5.24 µM |  | > 100 µM | 50 µM and > 100 µM | > 100 µM |  | 1.76 µM | 50 µM and 36.2 µM | 50 µM and 8.53 µM | > 100 µM | 1.46 µM | 2.12 µM | 19.6 µM | 0.477 µM | 9.49 µM | 1.13 µM |  |  | 
CCCCCCCCc1cc2c(O)c(c1)Cc1cc(CCCCCCCC)cc(c1O)Cc1cc(CCCCCCCC)cc(c1O)Cc1cc(CCCCCCCC)cc(c1O)Cc1cc(CCCCCCCC)cc(c1O)Cc1cc(CCCCCCCC)cc(c1O)C2 | > 100 µM | > 100 µM | > 100 µM | > 100 µM | > 100 µM |  | > 100 µM | > 100 µM | > 100 µM | > 100 µM |  |  |  |  |  |  |  |  | 
O/N=C1\CCCCC1C(NO)c1ccccc1 (stereo not drawn) | > 100 µM | > 100 µM | > 100 µM | > 100 µM | > 100 µM |  | > 100 µM | > 100 µM | > 100 µM | > 100 µM |  |  |  |  |  |  |  |  | 
CCOC(=O)C(Br)=C1OC(=O)c2ccccc2-c2ccccc21 (mixture of isomers) | 32.7 µM | 40 µM | 51.4 µM | 22.7 µM |  | 60.4 µM | 54.4 µM | > 100 µM | 56.4 µM | 52.3 µM |  |  |  |  |  |  |  |  | 
O=C(c1ccc([N+](=O)[O-])cc1[N+](=O)[O-])N(/N=C/C=C/c1ccccc1)c1nnc(-c2ccccc2)c(-c2ccccc2)n1 | 56 µM | > 100 µM |  | 57.3 µM | > 100 µM | > 100 µM | > 100 µM | > 100 µM | > 100 µM |  |  |  |  |  |  |  |  |  | 
NC(=S)N/N=C/c1ncccc1O | 20.3 µM and 8.34 µM | > 439 µM | 141 µM | > 1000 µM | 76.5 µM | 18 µM and 122 µM | 27.1 µM and 3.94 µM | 49.1 µM and 130 µM | 24.1 µM and 45.2 µM | > 1000 µM | 0.348 µM | 2.67 µM | 2.92 µM | 4.3 µM | 4.76 µM | 2.04 µM | 3.74 µM | 2.47 µM | 64.7 µM
COc1cc(C[P+](c2ccccc2)(c2ccccc2)c2ccccc2)cc(OC)c1OC | > 100 µM | > 100 µM |  | > 100 µM | > 100 µM | > 100 µM | > 100 µM | > 100 µM | > 100 µM | > 100 µM |  |  |  |  |  |  |  |  | 
O=S(=O)(OI(OI(OS(=O)(=O)C(F)(F)F)c1ccccc1)c1ccccc1)C(F)(F)F | > 100 µM | > 100 µM |  | > 100 µM | > 100 µM | > 100 µM | > 100 µM |  | > 100 µM | > 100 µM |  |  |  |  |  |  |  |  | 
CCCN(CCC)c1c([N+](=O)[O-])cc(C(=O)N(CC)CC)cc1[N+](=O)[O-] | > 100 µM | 90.9 µM |  | > 100 µM | 53.1 µM | 71.3 µM | > 100 µM | 96 µM | > 100 µM | > 100 µM |  |  |  |  |  |  |  |  | 
CCCCCCCC(=O)OCC1OC(n2cc(F)c(=O)[nH]c2=O)C(N)C(OC(=O)CCCCCCC)C1O (stereo not drawn) | 33.5 µM | 34.2 µM |  |  | 33.7 µM |  | 31.3 µM | 93.8 µM | 32.5 µM | 39.5 µM |  |  |  |  |  |  |  |  | 
O=c1[nH]c(=O)n(C2CC(O)C(CO)O2)cc1OS(=O)(=O)C(F)(F)F (stereo not drawn) | > 100 µM | > 100 µM | > 100 µM | > 100 µM | > 100 µM | > 100 µM | > 100 µM | > 100 µM | > 100 µM |  |  |  |  |  |  |  |  |  | 
CC(C)C1CN(C(=O)OCc2ccccc2)C2N1C(=O)C2(C)OCc1ccccc1 (stereo not drawn) | > 100 µM | > 100 µM |  | > 100 µM | > 100 µM | 81 µM | > 100 µM |  | > 100 µM |  |  |  |  |  |  |  |  |  | 
O=C1C=C(c2c(O)ccc3ccccc23)c2cc(O)ccc2C1=O | 33.9 µM | 33 µM | 43.8 µM | > 100 µM | 38.7 µM | 44.1 µM | 34.9 µM | 38.5 µM | 32.4 µM | 42.5 µM |  |  |  |  |  |  |  |  | 
CC(C)=CCC1=C(O)c2ccccc2C(=O)C1=O | > 100 µM | > 100 µM | > 100 µM | > 100 µM | > 100 µM | > 100 µM | > 100 µM | > 100 µM | > 100 µM | > 100 µM | > 100 µM and 21.6 µM and 26.1 µM |  |  |  | > 100 µM and 47.7 µM | > 100 µM and 31.3 µM | > 100 µM and 48.9 µM | > 100 µM and 22.7 µM | 
CCOc1ccc(NC(=O)CC2SC(=Nc3ccc(C)cc3C)NC2=O)cc1 (stereo not drawn) | > 100 µM | > 100 µM |  | > 100 µM | > 100 µM | > 100 µM | > 100 µM |  | > 100 µM | > 100 µM |  |  |  |  |  |  |  |  | 
Oc1oc(C(=C2N=c3ccccc3=N2)c2ccc(Cl)cc2)c(O)c1-c1ccc(Cl)cc1 | > 100 µM |  | > 100 µM | > 100 µM | 10.2 µM | 6.81 µM | 16.8 µM | 11.3 µM | > 100 µM | > 100 µM |  |  |  |  |  |  |  |  | 
O=C1C/C(Br)=C\c2ccccc2-c2ccccc21 | 2.91 µM | 3.36 µM | 16.8 µM | 9.65 µM | 8.28 µM | 8.22 µM | 16.9 µM | 10.1 µM | 4.8 µM | 16.9 µM |  |  |  |  |  |  |  |  | 
c1ccc2c(c1)CCc1c(-c3ccncc3)n[nH]c1-2 | > 100 µM | 87.4 µM |  | > 100 µM | 45.9 µM | 55.6 µM | > 100 µM | 93.6 µM | > 100 µM | > 100 µM |  |  |  |  |  |  |  |  | 
COC(=N)c1csc(C2OC(CO)C(O)C2O)n1 (stereo not drawn) | > 100 µM | > 100 µM | > 100 µM | > 100 µM | > 100 µM | > 100 µM | > 100 µM | > 100 µM | > 100 µM | > 100 µM |  |  |  |  |  |  |  |  | 
